In PubChem BioAssay (NCI):
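Dose response: 5 concentrations. Exposure: 48 h. Format: 96-well plates. Endpoint: linear interpolation; highest concentration if not reached. Definition used: TGI = concentration required for complete inhibition of growth.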

What was measured:
Experiment in all cases: NCI anticancer screen, dose series, 48 h
NCI/ADR-RES ovarian = system: NCI/ADR-RES ovarian
K-562 leukemia = system: K-562 leukemia
TK-10 renal = system: TK-10 renal
EKVX NSCLC = system: EKVX NSCLC
HCT-15 colon = system: HCT-15 colon
SW-620 colon = system: SW-620 colon
SK-MEL-2 melanoma = system: SK-MEL-2 melanoma
786-0 renal = system: 786-0 renal

## OCC1OC(c2ccccc2)CC1O (stereo not given)
NCI/ADR-RES ovarian
  TGI: > 100 µM
K-562 leukemia
  TGI: > 100 µM
TK-10 renal
  TGI: > 100 µM
EKVX NSCLC
  TGI: > 100 µM
HCT-15 colon
  TGI: > 100 µM
SW-620 colon
  TGI: > 100 µM
SK-MEL-2 melanoma
  TGI: > 100 µM
786-0 renal
  TGI: > 100 µM

## CC(=O)c1[nH]c(Nc2ccc(C)cc2)c(C(=S)Nc2ccccc2)c1N
NCI/ADR-RES ovarian
  TGI: 89.4 µM
K-562 leukemia
  TGI: 72.2 µM
TK-10 renal
  TGI: 35.5 µM
EKVX NSCLC
  TGI: 96.7 µM
HCT-15 colon
  TGI: 46.1 µM
SW-620 colon
  TGI: 96.9 µM
SK-MEL-2 melanoma
  TGI: 31.9 µM
786-0 renal
  TGI: 34.3 µM

## C[C@@]12C[C@@H](c3ccccc3O1)N1Cc3ccccc3CSC1=N2
NCI/ADR-RES ovarian
  TGI: > 100 µM
K-562 leukemia
  TGI: > 100 µM
TK-10 renal
  TGI: > 100 µM
EKVX NSCLC
  TGI: > 100 µM
HCT-15 colon
  TGI: > 100 µM
SW-620 colon
  TGI: > 100 µM
SK-MEL-2 melanoma
  TGI: > 100 µM
786-0 renal
  TGI: > 100 µM

## COc1ccc(Cn2c3ccc([N+](=O)[O-])cc3c(=O)n2Cc2ccccn2)cc1
NCI/ADR-RES ovarian
  TGI: > 100 µM
K-562 leukemia
  TGI: > 100 µM
TK-10 renal
  TGI: > 100 µM
EKVX NSCLC
  TGI: > 100 µM
HCT-15 colon
  TGI: > 100 µM
SW-620 colon
  TGI: > 100 µM
SK-MEL-2 melanoma
  TGI: > 100 µM
786-0 renal
  TGI: > 100 µM

## CC(=O)c1ccc2c3c1O[C@H]1c4[nH]c5ccccc5c4C[C@@]4(O)[C@@H](C2)N(CC2CC2)CC[C@]314
NCI/ADR-RES ovarian
  TGI: 26.6 µM
K-562 leukemia
  TGI: 41.3 µM
TK-10 renal
  TGI: 32.4 µM
EKVX NSCLC
  TGI: 45.3 µM
HCT-15 colon
  TGI: 25.3 µM
SW-620 colon
  TGI: 20.6 µM
SK-MEL-2 melanoma
  TGI: 30.9 µM
786-0 renal
  TGI: 28.3 µM

## CCN(CC)C1Oc2cc3c(cc2C(c2cccc(OC)c2O)C1C)OCO3 (stereo not given)
NCI/ADR-RES ovarian
  TGI: 53.8 µM
K-562 leukemia
  TGI: > 100 µM
TK-10 renal
  TGI: > 100 µM
EKVX NSCLC
  TGI: 62.3 µM
HCT-15 colon
  TGI: > 53.2 µM
SW-620 colon
  TGI: 35.4 µM
SK-MEL-2 melanoma
  TGI: 27.4 µM
786-0 renal
  TGI: 26.3 µM

## N#Cc1c(N2CCCC2)nsc1Nc1ccc(F)cc1
NCI/ADR-RES ovarian
  TGI: > 100 µM
K-562 leukemia
  TGI: > 100 µM
TK-10 renal
  TGI: > 100 µM
EKVX NSCLC
  TGI: > 100 µM
HCT-15 colon
  TGI: > 100 µM
SW-620 colon
  TGI: > 100 µM
SK-MEL-2 melanoma
  TGI: > 100 µM
786-0 renal
  TGI: > 100 µM

## CC(=O)OCC1OC(n2c(N)c(C#N)c(-c3cccc(Cl)c3)c(C#N)c2=S)C(OC(C)=O)C(OC(C)=O)C1OC(C)=O (stereo not given)
NCI/ADR-RES ovarian
  TGI: 96.4 µM
K-562 leukemia
  TGI: > 100 µM
TK-10 renal
  TGI: 54.2 µM
EKVX NSCLC
  TGI: > 100 µM
HCT-15 colon
  TGI: > 100 µM
SW-620 colon
  TGI: > 100 µM
SK-MEL-2 melanoma
  TGI: 45.2 µM
786-0 renal
  TGI: 60.5 µM

## CC1CCOc2ccc(cc2)C=Nc2ccc(cc2)-c2ccc(cc2)N=Cc2ccc(cc2)OCC1 (stereo not given)
NCI/ADR-RES ovarian
  TGI: > 100 µM
K-562 leukemia
  TGI: > 100 µM
TK-10 renal
  TGI: > 100 µM
EKVX NSCLC
  TGI: > 100 µM
HCT-15 colon
  TGI: > 100 µM
SW-620 colon
  TGI: > 100 µM
SK-MEL-2 melanoma
  TGI: > 100 µM
786-0 renal
  TGI: > 100 µM

## N#Cc1ccc2[nH]c3c(c2c1)CC(=O)Nc1ccccc1-3
NCI/ADR-RES ovarian
  TGI: > 100 µM
K-562 leukemia
  TGI: > 100 µM
TK-10 renal
  TGI: > 100 µM
EKVX NSCLC
  TGI: > 100 µM
HCT-15 colon
  TGI: > 100 µM
SW-620 colon
  TGI: > 100 µM
SK-MEL-2 melanoma
  TGI: > 100 µM
786-0 renal
  TGI: > 100 µM

## Cn1c(COC(=O)NC2CCCCC2)c(COC(=O)NC2CCCCC2)c2ccc3cc(C=O)ccc3c21
NCI/ADR-RES ovarian
  TGI: > 100 µM
K-562 leukemia
  TGI: > 100 µM
TK-10 renal
  TGI: > 100 µM
EKVX NSCLC
  TGI: > 100 µM
HCT-15 colon
  TGI: > 100 µM
SW-620 colon
  TGI: > 100 µM
SK-MEL-2 melanoma
  TGI: > 100 µM
786-0 renal
  TGI: > 100 µM

## CN1C=COC1N=C1CCCCC1 (stereo not given)
NCI/ADR-RES ovarian
  TGI: > 100 µM
K-562 leukemia
  TGI: > 100 µM
TK-10 renal
  TGI: > 100 µM
EKVX NSCLC
  TGI: > 100 µM
HCT-15 colon
  TGI: > 100 µM
SW-620 colon
  TGI: 12.1 µM
SK-MEL-2 melanoma
  TGI: > 100 µM
786-0 renal
  TGI: > 100 µM

## Cc1ccc2c(=O)cc(Cc3csc4ccccc34)[nH]c2n1
NCI/ADR-RES ovarian
  TGI: 52.4 µM
K-562 leukemia
  TGI: > 100 µM
TK-10 renal
  TGI: > 100 µM
EKVX NSCLC
  TGI: > 100 µM
HCT-15 colon
  TGI: 55.8 µM
SW-620 colon
  TGI: > 100 µM
SK-MEL-2 melanoma
  TGI: > 100 µM
786-0 renal
  TGI: > 100 µM

## OC1(c2ccc(Cl)cc2)c2c(c3ccccc3c3ccccc23)C2=NCCN21 (stereo not given)
NCI/ADR-RES ovarian
  TGI: 25.5 µM
K-562 leukemia
  TGI: > 100 µM
TK-10 renal
  TGI: 16.8 µM
EKVX NSCLC
  TGI: 35.4 µM
HCT-15 colon
  TGI: > 100 µM
SW-620 colon
  TGI: 32.8 µM
SK-MEL-2 melanoma
  TGI: 36.7 µM
786-0 renal
  TGI: 15.2 µM

## COc1cc(C2c3cc(OC)c(OC)c(O)c3C(=O)C3CCC(=O)N32)cc(OC)c1OC (stereo not given)
NCI/ADR-RES ovarian
  TGI: > 100 µM
K-562 leukemia
  TGI: > 100 µM
TK-10 renal
  TGI: > 100 µM
EKVX NSCLC
  TGI: > 100 µM
HCT-15 colon
  TGI: > 100 µM
SW-620 colon
  TGI: > 100 µM
SK-MEL-2 melanoma
  TGI: > 100 µM
786-0 renal
  TGI: > 100 µM

## C[N+]1([O-])[C@H]2CC(OC(=O)[C@H](CO)c3ccccc3)C[C@H]1[C@H]1O[C@H]12 (stereo not given in full)
NCI/ADR-RES ovarian
  TGI: > 100 µM
K-562 leukemia
  TGI: > 100 µM
TK-10 renal
  TGI: > 100 µM
EKVX NSCLC
  TGI: > 100 µM
HCT-15 colon
  TGI: > 100 µM
SW-620 colon
  TGI: > 100 µM
SK-MEL-2 melanoma
  TGI: > 100 µM
786-0 renal
  TGI: > 100 µM

## CC1C(C#N)(C#N)C(C#N)=C(N)C1(C)[N+](=O)[O-] (stereo not given)
NCI/ADR-RES ovarian
  TGI: > 100 µM
K-562 leukemia
  TGI: > 100 µM
TK-10 renal
  TGI: > 100 µM
EKVX NSCLC
  TGI: 42.6 µM
HCT-15 colon
  TGI: > 100 µM
SW-620 colon
  TGI: > 100 µM
SK-MEL-2 melanoma
  TGI: > 100 µM
786-0 renal
  TGI: > 100 µM

## COc1ccc(N2N=NN(C(C)C)/C2=C(/Cl)c2nnnn2-c2ccc(OC)cc2)cc1
NCI/ADR-RES ovarian
  TGI: 61.2 µM
K-562 leukemia
  TGI: > 32.5 µM
TK-10 renal
  TGI: 30.1 µM
EKVX NSCLC
  TGI: 36.1 µM
HCT-15 colon
  TGI: 31.4 µM
SW-620 colon
  TGI: 3.96 µM
SK-MEL-2 melanoma
  TGI: 29.6 µM
786-0 renal
  TGI: 7.06 µM

## CCN(CC)c1ccc2cc(C(N)=O)c(=Nc3ccc(F)cc3)oc2c1
NCI/ADR-RES ovarian
  TGI: > 100 µM
K-562 leukemia
  TGI: > 100 µM
TK-10 renal
  TGI: 44.7 µM
EKVX NSCLC
  TGI: > 100 µM
HCT-15 colon
  TGI: > 100 µM
SW-620 colon
  TGI: > 100 µM
SK-MEL-2 melanoma
  TGI: > 100 µM
786-0 renal
  TGI: > 100 µM

## CS(=O)(=O)OCC1CCCCCCCCCCC12SCCCS2 (stereo not given)
NCI/ADR-RES ovarian
  TGI: > 100 µM
K-562 leukemia
  TGI: > 100 µM
TK-10 renal
  TGI: > 100 µM
EKVX NSCLC
  TGI: > 100 µM
HCT-15 colon
  TGI: > 100 µM
SW-620 colon
  TGI: > 100 µM
SK-MEL-2 melanoma
  TGI: > 100 µM
786-0 renal
  TGI: > 100 µM
